Assay results from patent publication US6461997B1, “Triazole sulfones having herbicidal activity” (Monsanto Technology LLC, priority 1999, dated 2002).

Columns and labels:
barley (HORVX) = test: Selectivity test, PPI, cool season crop; type: in vivo, Hordeunm vulgare; details: PPI application
Method: (§1) A pre-prepared topsoil mixture (described above) was placed in a pot and compacted to a depth of 1.0 to 1.25 cm from the top of the pot. Seeds of each of several monocotyledonous and dicotyledonous annual plant species were placed on top of the soil. A sufficient quantity of soil to cover the seeds and level fill the pot was weighed into an open container. A known amount of the test compound was dissolved or suspended in an organic solvent and applied by spraying to this cover soil. The cover soil was thoroughly mixed to distribute the test compound throughout the cover soil, and was then applied as a cover layer over the seeds. Untreated soil was used as a cover layer for control pots. After treatment the plants were placed in a greenhouse where they received 0.64 cm of overhead irrigation. All subsequent watering consisted of a light overhead mist and/or subirrigation as needed for germination and growth. Tables 9 and 10 below relate to warm season plant species which were placed after pre-emergence treatment in a greenhouse with a 30/21° C. day/night temperature regime. Tables 11 and 12 below relates to cool season plant species placed after pre-emergence treatment in a greenhouse or growth chamber with an 18/13° C. day/night temperature regime. Only the compounds of Examples 1, 6, 8, 11, 13 and 15-20 were included in PPI tests.
(§2) Approximately 14 days after planting and treating, the plants were observed and herbicidal efficacy recorded as percent inhibition by comparison with untreated plants.
(§3) Additional pre-emergence and PPI tests were conducted by the procedures described above, on warm and cool season weed species in the presence of crop species, to assess herbicidal selectivity. Crop species included in warm season tests were corn (Zea mays, ZEAMX), rice (Oryza sativa, ORYSA) and soybean (Glycine max, GLYMX). Crop species included in cool season tests were wheat (Triticum aestivum, TRZAW), barley (Hordeunm vulgare, HORVX) and oilseed rape (Brassica napus, BRSNS).
(§4) Tables 15 and 16 relate to pre-emergence and PPI tests respectively on warm season species. Table 17 relates to pre-emergence tests on cool season species.

wheat (TRZAW) = test: Selectivity test, PPI, cool season crop; type: in vivo, Triticum aestivum; details: PPI application
Method: as §1, §2, §3, §4

SASKR (russian thistle) = test: Pre-plant incorporated (PPI) herbicidal activity, cool season; type: in vivo, Salsola kali; details: weed, PPI application
Method: (§5) In another set of tests, the pre-plant incorporated (PPI) activity of compounds of this invention was evaluated on the same species as for the pre-emergence tests described above. In the PPI tests the following procedure, designed to simulate PPI application, was used.
as §1, §2

corn (ZEAMX) = test: Selectivity test, PPI, warm season crop; type: in vivo, Zea mays; details: PPI application
Method: as §1, §2, §3, §4

[1] = test system: GALAP (catchweed bedstraw); test: Pre-plant incorporated (PPI) herbicidal activity, cool season; type: in vivo, Galium aparine; details: weed, PPI application
Method: as §5, §1, §2

SORVU (shattercane) = test: Pre-plant incorporated (PPI) herbicidal activity, warm season; type: in vivo, Sorghum vulgare; details: PPI application
Method: as §5, §1, §2

SINAR (wild mustard) = test: Pre-plant incorporated (PPI) herbicidal activity, cool season; type: in vivo, Sinapis arvensis; details: weed, PPI application
Method: as §5, §1, §2

STEME (common chickweed) = test: as above; type: in vivo, Stellaria media; details: weed, PPI application
Method: as §5, §1, §2

[2] = test system: LAMPU (purple deadnettle); test: as above; type: in vivo, Lamium purpureum; details: weed, PPI application
Method: as §5, §1, §2

[3] = test system: AGRRE (quackgrass (seedling)); test: as above; type: in vivo, Elymus repens; details: weed, PPI application
Method: as §5, §1, §2

[4] = test system: BRAPP (broadleaf signalgrass); test: Pre-plant incorporated (PPI) herbicidal activity, warm season; type: in vivo, Brachiaria platyphylla; details: PPI application
Method: as §5, §1, §2

SETVI (green foxtail) = test: Pre-plant incorporated (PPI) herbicidal activity, cool season; type: in vivo, Setaria viridis; details: weed, PPI application
Method: as §5, §1, §2

SETFA (giant foxtail) = test: Pre-plant incorporated (PPI) herbicidal activity, warm season; type: in vivo, Setaria faberi; details: PPI application
Method: as §5, §1, §2

SMILES: CCN(CC)C(=O)n1cnc(S(=O)(=O)C(F)(F)SC)n1 [Example 9]
- Percent inhibition HORVX (barley (HORVX); 30 g/ha): 0%
- Percent inhibition HORVX (barley (HORVX); 100 g/ha): 0%
- Percent inhibition HORVX (barley (HORVX); 300 g/ha): 10%
- Percent inhibition HORVX (barley (HORVX); 900 g/ha): 40%
- Percent inhibition TRZAW (wheat (TRZAW); 30 g/ha): 0%
- Percent inhibition TRZAW (wheat (TRZAW); 100 g/ha): 0%
- Percent inhibition TRZAW (wheat (TRZAW); 300 g/ha): 10%
- Percent inhibition TRZAW (wheat (TRZAW); 900 g/ha): 70%
- Percent inhibition SASKR (SASKR (russian thistle); 30 g/ha): 50%
- Percent inhibition SASKR (SASKR (russian thistle); 100 g/ha): 100%
- Percent inhibition SASKR (SASKR (russian thistle); 300 g/ha): 95%
- Percent inhibition SASKR (SASKR (russian thistle); 900 g/ha): 100%
- Percent inhibition ZEAMX (corn (ZEAMX); 30 g/ha): 0%
- Percent inhibition ZEAMX (corn (ZEAMX); 100 g/ha): 10%
- Percent inhibition ZEAMX (corn (ZEAMX); 300 g/ha): 90%
- Percent inhibition ZEAMX (corn (ZEAMX); 900 g/ha): 99%
- Percent inhibition GALAP ([1]; 30 g/ha): 100%
- Percent inhibition GALAP ([1]; 100 g/ha): 70%
- Percent inhibition GALAP ([1]; 300 g/ha): 100%
- Percent inhibition GALAP ([1]; 900 g/ha): 100%
- Percent inhibition SORVU (SORVU (shattercane); 30 g/ha): 60%
- Percent inhibition SORVU (SORVU (shattercane); 100 g/ha): 70%
- Percent inhibition SORVU (SORVU (shattercane); 300 g/ha): 100%
- Percent inhibition SORVU (SORVU (shattercane); 900 g/ha): 100%
- Percent inhibition SINAR (SINAR (wild mustard); 30 g/ha): 100%
- Percent inhibition SINAR (SINAR (wild mustard); 100 g/ha): 100%
- Percent inhibition SINAR (SINAR (wild mustard); 300 g/ha): 70%
- Percent inhibition SINAR (SINAR (wild mustard); 900 g/ha): 100%
- Percent inhibition STEME (STEME (common chickweed); 30 g/ha): 70%
- Percent inhibition STEME (STEME (common chickweed); 100 g/ha): 95%
- Percent inhibition STEME (STEME (common chickweed); 300 g/ha): 100%
- Percent inhibition STEME (STEME (common chickweed); 900 g/ha): 100%
- Percent inhibition LAMPU ([2]; 30 g/ha): 0%
- Percent inhibition LAMPU ([2]; 100 g/ha): 40%
- Percent inhibition LAMPU ([2]; 300 g/ha): 100%
- Percent inhibition LAMPU ([2]; 900 g/ha): 95%
- Percent inhibition AGRRE ([3]; 30 g/ha): 0%
- Percent inhibition AGRRE ([3]; 100 g/ha): 70%
- Percent inhibition AGRRE ([3]; 300 g/ha): 80%
- Percent inhibition AGRRE ([3]; 900 g/ha): 100%
- Percent inhibition BRAPP ([4]; 30 g/ha): 70%
- Percent inhibition BRAPP ([4]; 100 g/ha): 80%
- Percent inhibition BRAPP ([4]; 300 g/ha): 100%
- Percent inhibition BRAPP ([4]; 900 g/ha): 100%
- Percent inhibition SETVI (SETVI (green foxtail); 30 g/ha): 99%
- Percent inhibition SETVI (SETVI (green foxtail); 100 g/ha): 100%
- Percent inhibition SETVI (SETVI (green foxtail); 300 g/ha): 100%
- Percent inhibition SETVI (SETVI (green foxtail); 900 g/ha): 100%
- Percent inhibition SETFA (SETFA (giant foxtail); 30 g/ha): 95%
- Percent inhibition SETFA (SETFA (giant foxtail); 100 g/ha): 100%
- Percent inhibition SETFA (SETFA (giant foxtail); 300 g/ha): 100%
- Percent inhibition SETFA (SETFA (giant foxtail); 900 g/ha): 100%
